Measured values: ChEMBL document CHEMBL4425115, “Discovery and Structure-Activity Relationship (SAR) of a Series of Ethanolamine-Based Direct-Acting Agonists of Sphingosine-1-phosphate (S1P1)” (J Med Chem, 2016)
Values after ≈ are worked out from the molar mass of the structure shown.

What was measured:
[1] = Tmax in cynomolgus monkey at 1 mg/kg, iv or 1 mg/kg, po; format: ADME, organism-based, Macaca fascicularis; settings: in vivo
[2] = Clearance in cynomolgus monkey at 1 mg/kg, iv; format: ADME, organism-based, Macaca fascicularis; settings: in vivo
[3] = Oral bioavailability in rat at 5 mg/kg; format: ADME, organism-based; settings: in vivo
[4] = Cmax in rat plasma at 2 mg/kg, iv or 5 mg/kg, po; format: ADME, organism-based
[5] = Cmax in mouse plasma at 1 mg/kg, iv or 1 mg/kg, po; format: ADME, organism-based
[6] = Half life in rat at 2 mg/kg, iv; format: ADME, organism-based; settings: in vivo
[7] = Half life in cynomolgus monkey at 1 mg/kg, iv; format: ADME, organism-based, Macaca fascicularis; settings: in vivo
[8] = Oral bioavailability in cynomolgus monkey at 1 mg/kg; format: ADME, organism-based, Macaca fascicularis; settings: in vivo
[9] = Metabolic stability in mouse liver microsomes assessed as compound remaining; format: ADME, Microsome
[10] = Metabolic stability in rat liver microsomes assessed as compound remaining; format: ADME, Microsome
[11] = Clearance in mouse at 1 mg/kg, iv; format: ADME, organism-based; settings: in vivo
[12] = AUC (0 to 24 hrs) in dog at 1 mg/kg, iv or 1 mg/kg, po; format: ADME, organism-based, Canis lupus familiaris; settings: in vivo
[13] = Clearance in dog at 1 mg/kg, iv; format: ADME, organism-based, Canis lupus familiaris; settings: in vivo
[14] = Volume of distribution at steady state in dog at 1 mg/kg, iv or 1 mg/kg, po; format: ADME, organism-based, Canis lupus familiaris; settings: in vivo
[15] = AUC (0 to 24 hrs) in cynomolgus monkey at 1 mg/kg, iv or 1 mg/kg, po; format: ADME, organism-based, Macaca fascicularis; settings: in vivo
[16] = Half life in mouse at 1 mg/kg, iv; format: ADME, organism-based; settings: in vivo
[17] = Volume of distribution at steady state in mouse at 1 mg/kg, iv or 1 mg/kg, po; format: ADME, organism-based; settings: in vivo
[18] = Tmax in rat at 2 mg/kg, iv or 5 mg/kg, po; format: ADME, organism-based; settings: in vivo
[19] = Clearance in rat at 2 mg/kg, iv; format: ADME, organism-based; settings: in vivo
[20] = Oral bioavailability in mouse at 1 mg/kg; format: ADME, organism-based; settings: in vivo
[21] = Cmax in cynomolgus monkey plasma at 1 mg/kg, iv or 1 mg/kg, po; format: ADME, organism-based, Macaca fascicularis
[22] = Volume of distribution at steady state in cynomolgus monkey at 1 mg/kg, iv or 1 mg/kg, po; format: ADME, organism-based, Macaca fascicularis; settings: in vivo
[23] = AUC (0 to 24 hrs) in mouse at 1 mg/kg, iv or 1 mg/kg, po; format: ADME, organism-based; settings: in vivo
[24] = Volume of distribution at steady state in rat at 2 mg/kg, iv or 5 mg/kg, po; format: ADME, organism-based; settings: in vivo
[25] = Tmax in mouse at 1 mg/kg, iv or 1 mg/kg, po; format: ADME, organism-based; settings: in vivo
[26] = AUC (0 to 24 hrs) in rat at 2 mg/kg, iv or 5 mg/kg, po; format: ADME, organism-based; settings: in vivo
[27] = Metabolic stability in dog liver microsomes assessed as compound remaining; format: ADME, Canis lupus familiaris, Microsome
[28] = Oral bioavailability in dog at 1 mg/kg; format: ADME, organism-based, Canis lupus familiaris; settings: in vivo
[29] = Metabolic stability in human liver microsomes assessed as compound remaining; format: ADME, Microsome
[30] = Cmax in dog plasma at 1 mg/kg, iv or 1 mg/kg, po; format: ADME, organism-based, Canis lupus familiaris
[31] = Metabolic stability in cynomolgus monkey liver microsomes assessed as compound remaining; format: ADME, Macaca fascicularis, Microsome
[32] = Half life in dog at 1 mg/kg, iv; format: ADME, organism-based, Canis lupus familiaris; settings: in vivo
[33] = Tmax in dog at 1 mg/kg, iv or 1 mg/kg, po; format: ADME, organism-based, Canis lupus familiaris; settings: in vivo
[34] = Plasma concentration in Lewis rat at 3 mg/kg, po measured after 24 hrs; format: ADME, organism-based
[35] = Plasma concentration in Lewis rat at 3 mg/kg, po measured after 4 hrs; format: ADME, organism-based
[36] = Clearance in dog at 0.5 mg/kg, iv; format: ADME, organism-based, Canis lupus familiaris; settings: in vivo
[37] = Dissociation constant, pKa of the compound; format: physicochemical
[38] = Tmax in dog at 0.5 mg/kg, iv or 0.5 mg/kg, po; format: ADME, organism-based, Canis lupus familiaris; settings: in vivo
[39] = AUC (0 to 24 hrs) in dog at 0.5 mg/kg, iv or 0.5 mg/kg, po; format: ADME, organism-based, Canis lupus familiaris; settings: in vivo
[40] = Permeability of the compound at pH 7.4 by PAMPA assay; format: ADME; settings: read-out: permeability
[41] = Aqueous solubility of the compound at pH 6.5; format: physicochemical
[42] = Oral bioavailability in dog at 0.5 mg/kg; format: ADME, organism-based, Canis lupus familiaris; settings: in vivo
[43] = Aqueous solubility of the compound at pH 1; format: physicochemical
[44] = Cmax in dog plasma at 0.5 mg/kg, iv or 0.5 mg/kg, po; format: ADME, organism-based, Canis lupus familiaris
[45] = Half life in dog at 0.5 mg/kg, iv; format: ADME, organism-based, Canis lupus familiaris; settings: in vivo
[46] = Lipophilicity, log D of the compound at pH 6.5; format: physicochemical; settings: buffer
[47] = Volume of distribution at steady state in dog at 0.5 mg/kg, iv or 0.5 mg/kg, po; format: ADME, organism-based, Canis lupus familiaris; settings: in vivo
in vivo = settings: Lewis, rat, plasma, po, 30 mg/kg
[48] = Plasma concentration in Lewis rat at 10 mg/kg, po measured after 4 hrs; format: ADME, organism-based
[49] = Plasma concentration in Lewis rat at 10 mg/kg, po measured after 24 hrs; format: ADME, organism-based
[50] = Half life in human administered as single dose; format: ADME

| Compound | Tmax [1] [h] | CL [2] [mL/min/kg] | bioavailability [3] [%] | Cmax [4] [nM] | Cmax [5] [nM] | t1/2 [6] [h] | t1/2 [7] [h] | bioavailability [8] [%] | Stability [9] [%] | Stability [10] [%] | CL [11] [mL/min/kg] | AUC(0-t) [15] [µM·h] | t1/2 [16] [h] | Vdss [17] [L/kg] | Tmax [18] [h] | CL [19] [mL/min/kg] | bioavailability [20] [%] | Cmax [21] [nM] | Vdss [22] [L/kg] | AUC(0-t) [23] [µM·h] | also measured |
| --- | --- | --- | --- | --- | --- | --- | --- | --- | --- | --- | --- | --- | --- | --- | --- | --- | --- | --- | --- | --- | --- |
| O=C(O)[C@H]1CCCN(C[C@@H](O)c2ccc(-c3noc(-c4onc(-c5ccccc5)c4C(F)(F)F)n3)cc2)C1 | 4 | 700 | 76 | 5300 | 45000 | 9 | 33 | 88 | > 98 | > 98 | 100 | 17 | 15 | 0.1 | 3.3 | 1700 | 66 | 1100 | 1.8 | 362 | AUC(0-t) [12]: 1.3 µM·h; CL [13]: 1400 mL/min/kg; Vdss [14]: 1.4 L/kg; Vdss [24]: 1.2 L/kg; Tmax [25]: 1 h; AUC(0-t) [26]: 60 µM·h; Stability [27]: > 98%; bioavailability [28]: 74%; Stability [29]: > 98%; Cmax [30]: 840 nM; Stability [31]: > 98%; t1/2 [32]: 12 h; Tmax [33]: 0.8 h |
| CCCc1c(-c2nc(-c3ccc(C(O)CN4CCC[C@H](CC(=O)O)C4)cc3)no2)noc1-c1ccccc1 (some centres not stated) | – | – | – | – | – | – | – | – | – | – | – | – | – | – | – | – | – | – | – | – | concentration at 24 h [34]: 40 nM; concentration at 4 h [35]: 685 nM |
| O=C(O)C[C@H]1CCCN(C[C@@H](O)c2ccc(-c3noc(-c4onc(-c5ccccc5)c4C(F)(F)F)n3)cc2)C1 | 10 | 500 | 87 | 4700 | 44000 | 28 | 27 | 90 | > 98 | > 98 | 100 | 26 | 23 | 0.2 | 3.7 | 1000 | 62 | 1500 | 1.1 | 315 | CL [36]: 1300 mL/min/kg; pKa [37]: 8.8; Tmax [38]: 4 h; AUC(0-t) [39]: 7.8 µM·h; Papp [40]: 29.5 ×10⁻⁶ cm/s; solubility [41]: 229 µg/mL (≈ 422 µM); bioavailability [42]: 90%; Vdss [24]: 2.2 L/kg; Tmax [25]: 0.5 h; AUC(0-t) [26]: 66 µM·h; solubility [43]: > 850 µg/mL; Stability [27]: > 98%; Cmax [44]: 489000 nM; t1/2 [45]: 24 h; Stability [29]: > 98%; logD [46]: 3.94; Stability [31]: > 98%; Vdss [47]: 1.8 L/kg |
| CCCc1c(-c2nc(-c3ccc(C(O)CNCCC(=O)O)cc3)no2)noc1-c1ccccc1 (configuration not stated) | – | – | – | – | – | – | – | – | – | – | – | – | – | – | – | – | – | – | – | – | concentration at 4 h (in vivo): 142 nM |
| CCCc1c(-c2nc(-c3ccc(C(O)CN4CCC[C@H](C(=O)O)C4)cc3)no2)noc1-c1ccccc1 (some centres not stated) | – | – | – | – | – | – | – | – | – | – | – | – | – | – | – | – | – | – | – | – | concentration at 4 h [48]: 1600 nM; concentration at 24 h [49]: 38 nM |
| CCCCCCCCc1ccc(CCC(N)(CO)CO)cc1 [FINGOLIMOD] | – | – | – | – | – | – | – | – | – | – | – | – | – | – | – | – | – | – | – | – | half-life [50]: 144 to 216 h |
